Target: T1, Cdc7 (BEV coexpressed huCDC7/DBF4) (Homo sapiens, UniProt O00311)
T1 construct: made in house; host or cells: baculovirus expression vector (BEV) system
Test: Cdc7 enzyme inhibition assay ([33P]-ATP, biotinylated peptide substrate, FlashPlate)
Assay type: biochemical
Protocol: Cdc7 (BEV coexpressed huCDC7/DBF4) is prepared internally. Cdc7 assays are conducted as follows with final concentrations as listed. In 384-well v-bottom polypropylene plates, 6 L compound (2% DMSO), is mixed with 6 µL of Cdc7 (2 μg/mL), and Jerini peptide substrate A-All (biotin-C6linker-TPSDSLIYDDGLS) (2 μM), followed by immediate initiation with 6 L […] (1 μM, 20 mCi/μmol) using a reaction buffer comprising 25 mM HEPES, pH 7.5, 1 mM DTT, 10 mM MgCl2, 100 μM Na3VO4, 0.075 mg/ml Triton X-100. Reactions are quenched after 1 hr by the addition of 90 L stop buffer (50 mM EDTA, 2M NaCl). 85 μL of the stopped reactions are transferred to 384-well streptavidin-coated plates (FlashPlate Plus, Perkin Elmer), incubated 30 minutes at room temperature and washed 3 times with 0.05% Tween-20/PBS using an ELX-405 automated plate washer (BioTek), and counted on a TopCount Scintillation Plate Reader (Packard). IC50 values are determined via non-linear regression fitting of enzyme inhibition data and corresponding Ki values are generated assuming ATP-competitive (equilibrium) inhibition and using the experimentally determined apparent ATP Km of 0.7 μM (as determined using the above assay condition, but varying ATP). Table 1 depicts enzyme inhibition data (Ki) for exemplary compounds. In Table 1, “A” represents a Ki of less than 10 nM, “B” represents a Ki of between 10 nM and 100 nM, and “C” represents a Ki of greater than 100 nM.
Table 2 depicts enzyme inhibition data (Ki) for examples 27-43 using the same assay as example 26. In Table 2, “A” represents a Ki of less than 10 nM, “B” represents a Ki of between 10 nM and 100 nM, and “C” represents a Ki of greater than 100 nM.

[1] = Table 2, same assay as example 26
[2] = Table 1, Ki from IC50 assuming ATP-competitive inhibition, apparent ATP Km 0.7 μM, 1 μM ATP

T1 sequence (O00311 whole entry): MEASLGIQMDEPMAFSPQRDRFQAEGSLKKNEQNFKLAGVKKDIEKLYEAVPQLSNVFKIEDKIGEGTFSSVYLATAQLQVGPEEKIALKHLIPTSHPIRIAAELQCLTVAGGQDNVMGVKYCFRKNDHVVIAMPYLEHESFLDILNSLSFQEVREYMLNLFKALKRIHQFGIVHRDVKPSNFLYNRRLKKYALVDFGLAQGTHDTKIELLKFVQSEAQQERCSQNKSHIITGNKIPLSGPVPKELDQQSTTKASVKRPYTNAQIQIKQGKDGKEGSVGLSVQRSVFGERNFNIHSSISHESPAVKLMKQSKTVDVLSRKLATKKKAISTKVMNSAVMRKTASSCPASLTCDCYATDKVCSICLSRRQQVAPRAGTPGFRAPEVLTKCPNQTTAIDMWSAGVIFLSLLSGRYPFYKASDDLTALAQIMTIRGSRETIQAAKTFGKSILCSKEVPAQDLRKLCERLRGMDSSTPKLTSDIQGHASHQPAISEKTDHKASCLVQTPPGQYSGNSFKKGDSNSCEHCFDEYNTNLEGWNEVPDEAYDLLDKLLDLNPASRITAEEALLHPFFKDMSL
T1 sequence (Q9UBU7 whole entry partner): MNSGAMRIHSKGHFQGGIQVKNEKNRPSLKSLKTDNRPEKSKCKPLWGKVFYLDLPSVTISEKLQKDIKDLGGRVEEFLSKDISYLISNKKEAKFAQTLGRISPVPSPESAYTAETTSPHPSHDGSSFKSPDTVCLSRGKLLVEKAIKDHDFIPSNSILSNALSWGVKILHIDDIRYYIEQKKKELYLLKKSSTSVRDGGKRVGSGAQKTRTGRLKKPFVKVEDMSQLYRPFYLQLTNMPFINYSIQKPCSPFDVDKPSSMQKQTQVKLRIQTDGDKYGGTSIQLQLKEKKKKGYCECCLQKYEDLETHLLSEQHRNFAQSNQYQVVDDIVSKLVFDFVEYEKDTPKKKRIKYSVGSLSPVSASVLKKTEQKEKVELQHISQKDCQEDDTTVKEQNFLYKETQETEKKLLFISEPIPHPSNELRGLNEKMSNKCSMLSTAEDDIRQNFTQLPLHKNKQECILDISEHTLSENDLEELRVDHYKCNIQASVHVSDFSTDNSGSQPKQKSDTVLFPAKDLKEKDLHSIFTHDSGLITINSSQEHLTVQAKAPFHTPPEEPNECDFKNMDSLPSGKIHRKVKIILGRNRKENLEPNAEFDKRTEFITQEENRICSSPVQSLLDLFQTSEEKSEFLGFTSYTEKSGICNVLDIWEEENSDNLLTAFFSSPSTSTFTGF

N#Cc1cnc2[nH]cc(-c3cc(Cl)nc(NC4CCCCC4)c3)c2n1 [Example 37, 7-[2-chloro-6-(cyclohexylamino)pyridin-4-yl]-5H-pyrrolo[2,3-b]pyrazine-2-carbonitrile]
Ki [1]: < 10 nM

CS(=O)(=O)N1CCCC(CNc2cc(-c3c[nH]c4nccnc34)cc(Cl)n2)C1 (centres unmarked) [Example 10, 6-chloro-N-((1-(methylsulfonyl)piperidin-3-yl)methyl)-4-(5H-pyrrolo[2,3-b]pyrazin-7-yl)pyridin-2-amine]
Ki [2]: < 10 nM

O=C(Nc1cc(-c2c[nH]c3nccnc23)cc(Cl)n1)c1cccnc1 [Example 15, N-(6-chloro-4-(5H-pyrrolo[2,3-b]pyrazin-7-yl)pyridin-2-yl)nicotinamide]
Ki [2]: < 10 nM

Clc1cc(-c2c[nH]c3ncc(NCCCc4ccccc4)nc23)cc(NC2CCCCC2)n1 [Example 40, 7-[2-chloro-6-(cyclohexylamino)pyridin-4-yl]-N-(3-phenylpropyl)-5H-pyrrolo[2,3-b]pyrazin-2-amine]
Ki [1]: 10 to 100 nM

O=C(Nc1cc(-c2c[nH]c3nccnc23)cc(Cl)n1)C1CCNCC1 [Example 16, N-(6-chloro-4-(5H-pyrrolo[2,3-b]pyrazin-7-yl)pyridin-2-yl)piperidine-4-carboxamide]
Ki [2]: < 10 nM

CCCCC(=O)Nc1cc(-c2c[nH]c3nccnc23)cc(Cl)n1 [Example 14, N-(6-chloro-4-(5H-pyrrolo[2,3-b]pyrazin-7-yl)pyridin-2-yl)pentanamide]
Ki [2]: < 10 nM

O[C@H]1CC[C@H](Nc2cc(-c3c[nH]c4ncc(Br)nc34)cc(Cl)n2)CC1 [Example 34, trans 4-{[4-(2-bromo-5H-pyrrolo[2,3-b]pyrazin-7-yl)-6-chloropyridin-2-yl]amino}cyclohexanol]
Ki [1]: < 10 nM

CS(=O)(=O)N1CCCC(Nc2cc(-c3c[nH]c4nccnc34)cc(Cl)n2)C1 (centres unmarked) [Example 6, 6-chloro-N-(1-(methylsulfonyl)piperidin-3-yl)-4-(5H-pyrrolo[2,3-b]pyrazin-7-yl)pyridin-2-amine]
Ki [2]: < 10 nM

Reference: patent publication US8383624B2 (Abbott Laboratories, priority 2009, dated 2013)
